From US20070054908A1, “Novel pharmaceutical compositions and methods for treating tumors, including drug-resistant tumors” (priority 2005, published 2007)
Marks after values point to notes of the source that are not given here.

Assays:
PC-3MM2 tumors = experiment: Orthotopic model of PC-3 human prostate cancer cells in nude mice; assay type: in vivo; conditions: for toxic side effects on mice: based on body weight and H & E-stained sections of heart, lung, liver, kidney, spleen
Procedure: PC-3MM2 cells are implanted into the prostate of nude mice. The therapy begins 3 days later, when tumors are established, by daily intraperitoneal injection of DL-001 at 10 mg/kg or 20 mg/kg of body weight or of DMSO (solvent). Experiments are terminated 3 weeks later.

[1] = test system: mouse endothelial cells, lung; experiment: MTT cytotoxicity assay, lung endothelial cells; assay type: cell-based; conditions: Endothelial cell
Procedure: (§1) To evaluate the cytotoxic activity of the two compounds, human prostate cancer cells (PC-3, LNCaP, and DU145) were plated into 96-well plate and incubated for 96 hr with various concentrations of desired drugs. During the last 2 hr, MTT (3-(4,5-dimethylthiazol-2-yl)-2,5-diphenyltetrazolium bromide) was added and the dark-blue formazan formed in live cells was dissolved in dimethyl sulfoxide and the absorbance was measured with a FLUOstar Optima microplate reader (BMG LABTECH Inc., Durham, N.C.) at 570 nm. The IC50 was defined as the concentration of a drug that inhibited cell growth by 50% (see Dong et al, supra, and Dong Z, et al. “Organ-specific modulation of steady-state mdr gene expression and drug resistance in murine colon cancer cells” J. Natl. Cancer Inst 1994;86(12):913-20, both references fully incorporated herein by this reference).
(§2) In addition, the present inventors discovered that the compounds could also effectively kill human breast (MCF-7 and MDA435) and melanoma (A375) cells, as well as several lines of mouse tumor cells, with similar potencies (Table 1). Moreover, DL-001 could effectively kill endothelial cells derived from mouse lung and prostate (Table 1). Furthermore, it appears that tumor cells (LNCaP, MCF-7, and A375) that harbor the wildtype p53 tumor suppressor gene were relatively more sensitive to DL-001 (Table 1).

UV2237 (fibrosarcoma) = experiment: MTT cytotoxicity assay, UV2237; assay type: cell-based; conditions: mouse cells
Procedure: as §1, §2

caspase 3 = experiment: Fluorometric caspase assay in PC-3MM2 cells, caspase 3; assay type: cell-based, human; conditions: 50 nM, 24 hr
Procedure: (§3) Taxol is known to kill tumor cells by inducing arrest of cells at […] cell cycle and apoptosis. To identify mechanisms by which DL-001 killed tumor cells, we compared effects of DL-001 and Taxol on PC-3MM2 cells. […] To verify the role of DL-001 in inducing apoptosis, the activity of caspase 2,3,6,8 and 9 was analyzed. PC-3MM2 cells are treated with 50 nM of DL-001, taxol, or vincristine for 24 hr. Caspase activities in the treated cells are assessed by using a fluorometric caspase assay kit (Bio Vision, Mountain View, Calif.).

A375 (p53, wt) = experiment: MTT cytotoxicity assay, A375; assay type: cell-based; conditions: Homo sapiens, A-375
Procedure: as §1, §2

caspase 8 = experiment: Fluorometric caspase assay in PC-3MM2 cells, caspase 8; assay type: cell-based, human; conditions: 50 nM, 24 hr
Procedure: as §3

caspase 2 = experiment: Fluorometric caspase assay in PC-3MM2 cells, caspase 2; assay type: cell-based, human; conditions: 50 nM, 24 hr
Procedure: as §3

CT-26 (colon, MDR) = experiment: MTT cytotoxicity assay, CT-26 MDR; assay type: cell-based; conditions: Mus musculus, CT26, multidrug resistant
Procedure: as §1, §2

CT-26 (colon) = experiment: MTT cytotoxicity assay, CT-26; assay type: cell-based; conditions: CT26, mouse cells, parental
Procedure: as §1, §2

4T1 (breast) = experiment: MTT cytotoxicity assay, 4T1; assay type: cell-based; conditions: mouse cells
Procedure: as §1, §2

DU145 (p53, mt) = experiment: MTT cytotoxicity assay, DU145; assay type: cell-based; conditions: Homo sapiens, DU-145, 96 hr
Procedure: as §1

PC-3MM2 cells = experiment: Cell cycle and apoptosis in PC-3MM2 cells; assay type: cell-based, human
Procedure: as §3

PC-3 (p53, del) = experiment: MTT cytotoxicity assay, PC-3; assay type: cell-based; conditions: Homo sapiens, 96 hr
Procedure: as §1

B16 (melanoma) = experiment: MTT cytotoxicity assay, B16; assay type: cell-based; conditions: mouse cells
Procedure: as §1, §2

[2] = test system: mouse endothelial cells, prostate; experiment: MTT cytotoxicity assay, prostate endothelial cells; assay type: cell-based; conditions: Endothelial cell
Procedure: as §1, §2

MDA435 (p53, mt) = experiment: MTT cytotoxicity assay, MDA435; assay type: cell-based; conditions: Homo sapiens
Procedure: as §1, §2

LNCaP (p53, wt) = experiment: MTT cytotoxicity assay, LNCaP; assay type: cell-based; conditions: Homo sapiens, 96 hr
Procedure: as §1

TRAMP (prostate) = experiment: MTT cytotoxicity assay, TRAMP; assay type: cell-based; conditions: mouse cells
Procedure: as §1, §2

caspase 6 = experiment: Fluorometric caspase assay in PC-3MM2 cells, caspase 6; assay type: cell-based, human; conditions: 50 nM, 24 hr
Procedure: as §3

MCF-7 (p53, wt) = experiment: MTT cytotoxicity assay, MCF-7; assay type: cell-based; conditions: Homo sapiens, MCF7
Procedure: as §1, §2

caspase 9 = experiment: Fluorometric caspase assay in PC-3MM2 cells, caspase 9; assay type: cell-based, human; conditions: 50 nM, 24 hr
Procedure: as §3

Row | SMILES | toxic side effects on mice (PC-3MM2 tumors) | Fold change of caspase activity compared with that in control cells, caspase 3 (caspase 3) [fold] | Fold change of caspase activity compared with that in control cells, caspase 8 (caspase 8) [fold] | Fold change of caspase activity compared with that in control cells, caspase 2 (caspase 2) | IC50 (CT-26 (colon, MDR)) [µM] | IC50 (CT-26 (colon)) [µM] | IC50 (DU145 (p53, mt)) [µM] | effect on cell cycle and apoptosis (PC-3MM2 cells) | IC50 (PC-3 (p53, del)) [µM] | Fold change of caspase activity compared with that in control cells, caspase 6 (caspase 6) [fold] | Fold change of caspase activity compared with that in control cells, caspase 9 (caspase 9) [fold] | further results
1 | COc1ccc(C(=O)c2cc([N+](=O)O)ccc2N2CCCCC2)cc1 (racemic) [DL-001, (4-Methoxy-phenyl)-(5-nitro-2-piperidin-1-yl-phenyl)-methanone] | did not produce significant toxic side effects | 22 | 1 | 17* fold | 0.039 | 0.039 | 0.028 | arrested at S/G2 checkpoint of cell cycle and went into apoptosis | 0.032 | 1 | 4 | growth of PC-3MM2 tumors in the prostate of nude mice (PC-3MM2 tumors; daily intraperitoneal injection, 10 mg/kg or 20 mg/kg (DL-001), from day 3, terminated 3 weeks later): inhibited growth of PC-3MM2 tumors in dose-dependent manner; IC50 [1]: 0.045 µM; IC50 (UV2237 (fibrosarcoma)): 0.035 µM; IC50 (A375 (p53, wt)): 0.023 µM; IC50 (4T1 (breast)): 0.03 µM; IC50 (B16 (melanoma)): 0.026 µM; IC50 [2]: 0.051 µM; IC50 (MDA435 (p53, mt)): 0.03 µM; IC50 (LNCaP (p53, wt)): 0.011 µM; IC50 (TRAMP (prostate)): 0.041 µM; IC50 (MCF-7 (p53, wt)): 0.017 µM
2 | COc1ccc(C(=O)c2cc([N+](=O)O)ccc2N2CCOCC2)cc1 (racemic) [DL-002, (4-Methoxy-phenyl)-(2-morpholin-4-yl-5-nitro-phenyl)-methanone] | did not produce significant toxic side effects | – | – | – | – | – | 0.03 | – | 0.03 | – | – | –
3 | CC(=O)O[C@H]1C(=O)[C@@]2(C)[C@H]([C@H](OC(=O)c3ccccc3)[C@]3(O)C[C@H](OC(=O)[C@H](O)[C@@H](NC(=O)c4ccccc4)c4ccccc4)C(C)=C1C3(C)C)[C@]1(OC(C)=O)CO[C@@H]1C[C@@H]2O [Taxol] | – | 34 | 1 | 26 fold | 0.367 | 0.073 | 0.003 | arrested at S/G2 checkpoint of cell cycle and went into apoptosis | 0.004 | 1 | 7 | –
4 | CC[C@]1(O)C[C@H]2CN(CCc3c([nH]c4ccccc34)[C@@](C(=O)OC)(c3cc4c(cc3OC)N(C=O)[C@H]3[C@@](O)(C(=O)OC)[C@H](OC(C)=O)[C@]5(CC)C=CCN6CC[C@]43[C@@H]65)C2)C1 [Vincristine, vincristine] | – | 24 | 1 | 18 fold | 0.038 | 0.016 | 0.005 | – | 0.004 | 1 | 4 | –
